Each structure is given as a SMILES string. Marks after values point to notes of the source that are not given here.

We go through two compounds from patent publication US20130178436A1, “COMPOSITION FOR PREVENTING, IMPROVING, OR TREATING RENAL DISEASE INCLUDING MAILLARD BROWNING REACTION PRODUCTS OF PANAX SPECIES PLANT EXTRACT” (Korea Institute of Science and Technology, priority 2012, published 2013).

One series concerns LLC-PK1 cells. Briefly: Protective activity for renal cells against AAPH-induced oxidative damage (MTT viability). Conditions: 10 mM AAPH. The class given is cell-based. The text has this: Renal cells, i.e., LLC-PK1 cell lines, are vulnerable to oxidative damage, and AAPH, which is a radical releasing agent, combines with oxygen molecules at a very rapid speed to produce a peroxyl radical and trigger lipid peroxidation, resulting in cytotoxicity (Miki et al., Arch. Biochem. Biophy., 258(2), 373-380, 1987). Thus, a protective activity for renal cells may be evaluated using such an oxidative damage of the LLC-PK1 cell lines using AAPH.
A protective effect for nephrotoxicity was evaluated using renal cells (LLC-PK1) with reference to a method reported in the publication (Yokozawa et al., Food Chem., 48, pp5068-5073, 2000) as follows.
First, the LLC-PK1 cells were cultured in an incubator with conditions of 37° C., 95% air, and 5% CO2 by using a DMEM/F12 medium (Gibco BRL Life Technologies, Grand Island, NY, USA) supplemented with 5% fetal bovine serum (Gibco BRL Life Technologies), 50 units/ml of penicillin G, and 50 μg/ml of streptomycin (Gibco BRL Life Technologies). The incubated LLC-PK1 cells were introduced into a 96-well incubation plate at a concentration of 10^4 […] and then stabilized for 2 hours. Afterwards, a radical generating reagent (i.e., 10 mM AAPH dissolved in a medium) was added to each well and cultured for 24 hours, and 50 μl of an MTT (1 mg/ml) reagent was then added to each well and incubated at 37° C. 4 hours thereafter, the medium containing MTT was removed and 100 μl of dimethyl sulfoxide was added to each well. Then, absorbance of the sample was measured using a detection wavelength of 540 nm in a SPECTRAmax 340PC (Molecular Devices, Sunnyvale, Calif., USA) microplate reader and a viability of the LLC-PK1 cells was measured using the absorbance thereof.

Series [1] can be described thus: DPPH radical scavenging ability (antioxidative activity). The class given is biochemical. Conditions: 60 μM DPPH, 30 minutes; FIGS. 5 to 13. The procedure:
A DPPH radical scavenging ability was evaluated using a modified method from that described by Hatano et al (Hatano et al., Chem. Pharm. Bull., 37(8), pp 2016-2021, 1989). 100 μl of 60 μM DPPH was added to 100 μl of each of a plurality of sample solutions, the resultant solution was stirred and left for 30 minutes, and the absorbance of the resultant mixture was measured at 540 nm. An antioxidative activity (electron donating ability) was confirmed by measuring a decreasing ratio in absorbances of experimental groups comparing with a control of the sample solutions.
On the technique in general: DPPH is a stable violet radical that fades when it is reduced.

The term viability denotes a per cent measure of how many cells are alive, often set against a control. As to `N=C(N)NN` [aminoguanidine], in the series with LLC-PK1 cells (Sus scrofa, sample 10 μg/ml, 24 hours, MTT, read-out: Cell viability), the viability at 10 µg/mL worked out at 86.7 ± 14.2%. Further, in the series with LLC-PK1 cells (Sus scrofa, sample 100 μg/ml, 24 hours, MTT, read-out: Cell viability), the viability at 100 µg/mL was 88 ± 4.1%.

Turning to `CC(C)=CCC[C@](C)(O[C@@H]1O[C@H](CO)[C@@H](O)[C@H](O)[C@H]1O)[C@H]1CC[C@]2(C)[C@@H]1[C@H](O)C[C@@H]1[C@@]3(C)CC[C@H](O)C(C)(C)[C@@H]3[C@@H](O[C@@H]3O[C@H](CO)[C@@H](O)[C@H](O)[C@H]3O[C@@H]3O[C@@H](C)[C@H](O)[C@@H](O)[C@H]3O)C[C@]12C` [ginsenoside Re], in series [1], the “DPPH radical scavenging ability (in words)” value is “low reactive oxygen scavenging ability”. In addition, the “protective activity for renal cells (in words)” value in the series on LLC-PK1 cells is listed as “inhibited cell damage at a high concentration”. For the same compound, the Cell viability with LLC-PK1 cells (sample 10 μg/ml, 24 hours, MTT) is reported as 89.6 ± 9.7^a %.
